Laboratory results reported in patent US20160303141A1, “CORTEXOLONE 17alpha-PROPIONATE FOR USE IN THE TREATMENT OF SKIN WOUNDS AND/OR ATROPHIC SKIN DISORDERS” (CASSIOPEA S.P.A., priority 2013, published 2016).

What was measured:
[1] = tested on: testosterone propionate (TP) response; assay: Local antiandrogenic activity, flank organ test in hamster; type: in vivo; conditions: for Percent inhibition of testosterone propionate (TP) response: topical on flank organ; for Mean inhibition (%): mean over daily doses 100, 200, 400 μg + 4 μg TP
[2] = tested on: Adult human dermal fibroblasts (HDF); assay: In-vitro fibroblast proliferation (BrdU incorporation); type: cell-based; conditions: for Fibroblast proliferation (Δ% vs. control): Table 2 summary; for proliferative stimulating effect (in words): same test and conditions as Example 1; for Δ % vs. control (proliferation) / Absorbance ± SD Treated: 72 h; for Absorbance ± SD Treated: BrdU, 450 nm
Description: Fibroblast proliferation: Adult human dermal fibroblasts (HDF) were appropriately grown, and were employed between 2nd and 6th passage. […] Twenty-four hours before end of incubation, the cells were labelled with Bromo deoxyuridine (BrdU, 10 μL/well) and its incorporation into DNA was evaluated measuring the absorbance of the samples in an ELISA reader at 450 nm. The proliferation rate of the fibroblasts was evaluated on the increase of the absorbance of the samples.

[3] = tested on: Adult human dermal fibroblasts (HDF); assay: In-vitro effect on extra-cellular protein synthesis (Bradford); type: cell-based; conditions: for Protein synthesis (Δ% vs. control): Table 2 summary; for effect on extracellular protein synthesis (in words): same test and conditions as Example 3; for Δ % vs. control (protein concentration) / Protein concentration Treated: 72 h; for Protein concentration Treated: supernatant
Description: Adult human dermal fibroblasts (HDF) were appropriately grown, and were employed between 2nd and 6th passage. The fibroblasts, plated in a 24-wells plate at the density of 12×10^4 cells/mL (1 mL/well), were incubated for 72 hours with rhEGF (100 nM) as positive control, or with cortexolone 17α-propionate at concentration of 5 μM, 25 μM, 50 μM. After 72 h of incubation the supernatant were mixed with 1 mL of Bradford reagent and incubated for 45 minutes at room temperature. Each sample was then read in a spectrophotometer at 595 nm.

[4] = tested on: Adult human dermal fibroblasts (HDF); assay: In-vitro effect on synthesis of type I procollagen (PIP ELISA); type: cell-based; conditions: for Procollagen I Synthesis (Δ% vs. control): Table 2 summary; for effect on synthesis of type I procollagen (in words): same test and conditions as Example 4; for Δ % vs. control (PIP) / PIP concentration: 48 h; for PIP concentration: supernatant
Description: Adult human dermal fibroblasts (HDF) were appropriately grown, and were employed between 2nd and 4th passage. […] After the incubation the supernatant were collected and dosed for the terminal peptide of type I procollagen (PIP) with ELISA kit. The measurement of PIP concentration in the culture medium is representative for the production of collagen type I. The results of type I procollagen concentration (PIP) are reported in the Table 6 below: […]

[5] = tested on: Adult human dermal fibroblasts (HDF); assay: In-vitro fibroblast migration (image density); type: cell-based; conditions: for Image density 6 h: 6 h after insert removal; for Image density 24 h: 24 h after insert removal; for Image density t0: immediately after insert removal; for Δ (%) vs. vehicle (migration): increase t0-24 h
Description: Fibroblast migration: Adult human dermal fibroblasts (HDF) were appropriately grown, and were employed between 2nd and 6th passage. […] After incubation the culture-insert was removed and the cells were maintained in culture for further 24 hours. Immediately after insert removal, and at interval of 6 and 24 h, the plates were photographed by Digital Microscope Eyepiece. The entity of cell migration was measured using image analyzing software Image J, and was expressed as image density.

cutaneous wounds = assay: In vivo wound healing activity, repTOP mitoIRE mouse model; conditions: 250 mg/mouse topical
Description: The wound healing activity of the cortexolone 17α-propionate on cutaneous wounds was evaluated in an in vivo test foreseeing the use of repTOP™ mitoIRE mouse model. RepTOP™ mitoIRE mice from TOP® S.r.l. are engineered for the ubiquitous and proliferation-regulated expression of luciferase in proliferating tissues by embedding the transgene containing the minimal promoter of Cyclin B2d driving the firefly luciferase gene within HS4 insulator sequences.
Cortexolone 17α-propionate was dissolved in 0.4% (v/v) tween 80 and 0.5% (w/v) carboxymethylcellulose in normal saline.
The test was carried out comparing the wound healing activity of cortexolone 17α-propionate at two different dosages (50 mg/mouse and 250 mg/mouse) versus the vehicle (i.e. 0.4% (v/v) tween 80 and 0.5% (w/v) carboxymethylcellulose in normal saline) and versus a comparator, i.e. Cicatrene® cream (Johnson&Johnson®), a drug product used in wound management and wound healing.
Animal treatments. The repTOP™ mitoIRE mice were shaved by VEET® depilatory cream a day before the treatment. A round full-thickness wound of 0.4 cm^2 area was made through the dorsal skin and the panniculus carnosus muscle of repTOP™ mitoIRE by using skin biopsy devices (HS biopsy punch).
In vivo test. In order to establish the proliferative stimulating activity of cortexolone 17α-propionate, the vehicle (200 μl/mouse), cortexolone 17α-propionate (50 mg/mouse), cortexolone 17α-propionate (250 mg/mouse) and Cicatrene® (200 mg/mouse) were spread topically on the wound of repTOP™ mitoIRE mice (4 mice per group of treatment), immediately after the generation of the round punch. Photon-emission was measured in wound area at the following times: time 0 and 1, 2, 3 and 6 days after the treatment. A representation of the area of wound selected for the measurements is depicted in FIG. 1.
In vivo imaging. […] Photon emission in wound area was measured using the Living Image Software (Caliper™, a Perkin Elmer™ company) and expressed as photon/second/cm^2/steradian (p/s/cm^2/sr). The measurement of wound areas was expressed as cm^2.

[6] = daily dose 100 μg test compound + 4 μg TP
[7] = daily dose 200 μg test compound + 4 μg TP
[8] = daily dose 400 μg test compound + 4 μg TP

`CCCC(=O)OCC(=O)[C@@]1(OC(=O)CCC)CC[C@H]2[C@@H]3CCC4=CC(=O)CC[C@]4(C)[C@H]3CC[C@@]21C` [Cortexolone 17α,21-dibutyrate, cortexolone 17α,21-dibutyrate] was tested, and the “Percent inhibition of testosterone propionate (TP) response” value (“Percent inhibition” below) [1, 6] was 84%, the “Percent inhibition” value [1, 7] was 89% and the “Percent inhibition” value [1, 8] was 97%. The “Mean inhibition (%)” value [1] was 90%, the “Fibroblast proliferation (Δ% vs. control)” value ([2]; 50 μM) was 9.6% and the “proliferative stimulating effect (in words)” value [2] was “did not show any proliferative stimulating effect”. The “Protein synthesis (Δ% vs. control)” value ([3]; 50 μM) was 0.6%, the “effect on extracellular protein synthesis (in words)” value [3] was “did not show any effect in increasing the extracellular protein synthesis” and the “Procollagen I Synthesis (Δ% vs. control)” value ([4]; 50 μM) was −2.8%. For the same compound, the “effect on synthesis of type I procollagen (in words)” value [4] was “did not show any effect in increasing the synthesis of type I procollagen”.

For `CCC(=O)O[C@]1(C(=O)CO)CC[C@H]2[C@@H]3CCC4=CC(=O)CC[C@]4(C)[C@H]3CC[C@@]21C` [Cortexolone 17α-propionate, cortexolone 17α-propionate], the “Percent inhibition” value [1, 6] was 62%, the “Percent inhibition” value [1, 7] was 69% and the “Percent inhibition” value [1, 8] was 86%. The “Mean inhibition (%)” value [1] was 72%, the “Increase from t0 − 24 h (image density)” value ([5]; 10 μM) was 35.2 and the “Image density 6 h” value ([5]; 10 μM) was 24.0 ± 2.4. For the same compound, the “Image density 24 h” value ([5]; 10 μM) was 54.5 ± 2.5, the “Image density t0” value ([5]; 10 μM) was 19.3 ± 0.8 and the “Δ (%) vs. vehicle (migration)” value ([5]; 10 μM) was 30.3%. For the same compound, the “Increase from t0 − 24 h (image density)” value ([5]; 50 μM) was 44.0, the “Image density 6 h” value ([5]; 50 μM) was 25.1 ± 1.2 and the “Image density 24 h” value ([5]; 50 μM) was 64.1 ± 5.6. For the same compound, the “Image density t0” value ([5]; 50 μM) was 20.1 ± 2.0, the “Δ (%) vs. vehicle (migration)” value ([5]; 50 μM) was 62.9% and the “Δ % vs. control (proliferation)” value ([2]; 1 μM) was −0.95%. The “Absorbance ± SD Treated” value ([2]; 1 μM) was 2.06 ± 0.15, the “Δ % vs. control (proliferation)” value ([2]; 5 μM) was 6.71% and the “Absorbance ± SD Treated” value ([2]; 5 μM) was 2.05 ± 0.24. The “Δ % vs. control (proliferation)” value ([2]; 25 μM) was 7.00%, the “Absorbance ± SD Treated” value ([2]; 25 μM) was 2.09 ± 0.19 and the “Δ % vs. control (proliferation)” value ([2]; 50 μM) was 30.98%. The “Absorbance ± SD Treated” value ([2]; 50 μM) was 2.48 ± 0.23, the “Fibroblast proliferation (Δ% vs. control)” value ([2]; 50 μM) was 31.0% and the “Δ % vs. control (protein concentration)” value ([3]; 5 μM) was 0%. The “Protein concentration Treated” value ([3]; 5 μM) was 0.5 ± 0.056 mg/mL, the “Δ % vs. control (protein concentration)” value ([3]; 25 μM) was 12.18% and the “Protein concentration Treated” value ([3]; 25 μM) was 0.884 ± 0.028 mg/mL. For the same compound, the “Δ % vs. control (protein concentration)” value ([3]; 50 μM) was 27.41%, the “Protein concentration Treated” value ([3]; 50 μM) was 0.846 ± 0.087 mg/mL and the “Protein synthesis (Δ% vs. control)” value ([3]; 50 μM) was 27.4%. For the same compound, the “time of maximum increase of proliferative cells after administration” value (cutaneous wounds) was 3 days, the “mean reduction in wound area” value (cutaneous wounds; after 3 days from administration) was 26% and the “increase of photon-emission from wounds with respect to time 0” value (cutaneous wounds; time 3 days) was 143%. The “Δ % vs. control (PIP)” value ([4]; 10 μM) was −8.27%, the PIP concentration ([4]; 10 μM) was 949.50 ± 149.81 ng/mL and the “Δ % vs. control (PIP)” value ([4]; 50 μM) was 199.59%. For the same compound, the PIP concentration ([4]; 50 μM) was 3100.98 ± 152.59 ng/mL and the “Procollagen I Synthesis (Δ% vs. control)” value ([4]; 50 μM) was 199.6%.

For `CCCCC(=O)O[C@]1(C(=O)CO)CC[C@H]2[C@@H]3CCC4=CC(=O)CC[C@]4(C)[C@H]3CC[C@@]21C` [Cortexolone 17α-valerate, cortexolone 17α-valerate], the “Percent inhibition” value [1, 6] was 66%, the “Percent inhibition” value [1, 7] was 65% and the “Percent inhibition” value [1, 8] was 73%. The “Mean inhibition (%)” value [1] was 68%, the “Fibroblast proliferation (Δ% vs. control)” value ([2]; 50 μM) was −33.8% and the “proliferative stimulating effect (in words)” value [2] was “did not show any proliferative stimulating effect”. The “Protein synthesis (Δ% vs. control)” value ([3]; 50 μM) was −3.8%, the “effect on extracellular protein synthesis (in words)” value [3] was “did not show any effect in increasing the extracellular protein synthesis” and the “Procollagen I Synthesis (Δ% vs. control)” value ([4]; 50 μM) was −14.6%. The “effect on synthesis of type I procollagen (in words)” value [4] was “did not show any effect in increasing the synthesis of type I procollagen”.

For `C[C@]12CCC(=O)C=C1CC[C@@H]1[C@@H]2[C@@H](O)C[C@@]2(C)[C@H]1CC[C@]2(O)C(=O)CO` [Cortisol, cortisol, reference compound], the “Increase from t0 − 24 h (image density)” value ([5]; 50 μM) was 34.4, the “Image density 6 h” value ([5]; 50 μM) was 22.9 ± 2.7 and the “Image density 24 h” value ([5]; 50 μM) was 56.6 ± 4.4. The “Image density t0” value ([5]; 50 μM) was 22.2 ± 3.2, the “Δ (%) vs. vehicle (migration)” value ([5]; 50 μM) was 27.4% and the “Δ % vs. control (proliferation)” value ([2]; 50 μM) was −56.84%. The “Δ % vs. control (PIP)” value ([4]; 50 μM) was −74.94% and the PIP concentration ([4]; 50 μM) was 259.36 ng/mL.

`O=C1O[C@H]([C@@H](O)CO)C(O)=C1O` [Vit. C, L-Ascorbic acid] was tested, and the “Δ % vs. control (PIP)” value ([4]; 0.2 mM) was 260.87% and the PIP concentration ([4]; 0.2 mM) was 3735.27 ± 515.52 ng/mL.

With “rhEGF: recombinant human Epidermal Growth Factor, known fibroblast proliferation promoter, positive control” the “Increase from t0 − 24 h (image density)” value ([5]; 100 nM) was 43.6, the “Image density 6 h” value ([5]; 100 nM) was 21.6 ± 1.0 and the “Image density 24 h” value ([5]; 100 nM) was 65.7 ± 4.2. The “Image density t0” value ([5]; 100 nM) was 22.1 ± 2.9, the “Δ (%) vs. vehicle (migration)” value ([5]; 100 nM) was 61.5% and the “Δ % vs. control (proliferation)” value ([2]; 100 nM) was 49.49%. For the same compound, the “Absorbance ± SD Treated” value ([2]; 100 nM) was 2.72 ± 0.22, the “Δ % vs. control (protein concentration)” value ([3]; 100 nM) was 49.54% and the “Protein concentration Treated” value ([3]; 100 nM) was 0.978 ± 0.074 mg/mL.
